In patent US12077503B2, “Substituted cyclic amides and their use as herbicides” (FMC CORPORATION, priority 2015, dated 2024):

How the values were obtained:
Type in all cases: in vivo
[1] = test system: ivy-leaved morning glory (Ipomoea hederacea); assay: Test G Pre-Emergence Protocol; settings: Ipomoea, pre-emergence, 312 h, evaluated after 13 days
Summary of the method: (§1)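 One day after sowing, pots are treated with a spray of test compound formulated in acetone/water 50:50 plus 0.5% Tween 20, giving 15.625, 62.5 or 250 g/ha. Evaluation on a 0–100 damage scale follows 13 days of glasshouse growth.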

[2] = test system: redroot pigweed (Amaranthus retroflexus); assay: Test G Pre-Emergence Protocol; settings: Amaranthus retroflexus, pre-emergence, 312 h, evaluated after 13 days
Summary of the method: as §1

[3] = test system: barnyardgrass (Echinochloa crus-galli); assay: Test G Pre-Emergence Protocol; settings: Echinochloa crus-galli, pre-emergence, 312 h, evaluated after 13 days
Summary of the method: as §1

[4] = test system: velvetleaf (Abutilon theophrasti); assay: Test G Pre-Emergence Protocol; settings: Abutilon theophrasti, pre-emergence, 312 h, evaluated after 13 days
Summary of the method: as §1

[5] = test system: giant foxtail (Setaria faberi); assay: Test G Pre-Emergence Protocol; settings: Setaria faberi, pre-emergence, 312 h, evaluated after 13 days
Summary of the method: as §1

corn (Zea mays) [6] = assay: Test G Pre-Emergence Protocol; settings: Zea mays, pre-emergence, 312 h, evaluated after 13 days
Summary of the method: as §1

[7] = test system: ivy-leaved morning glory (Ipomoea hederacea); assay: Test G Post-Emergence Protocol; settings: Ipomoea, post-emergence, 312 h, read-out: Morningglory, Ivy-leaved damage rating
Summary of the method: (§2)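 Post-emergence herbicidal damage, scored visually 0–100 at 13 days. Application at 15.625, 62.5 or 250 g/ha onto 8-day-old plants grown under glasshouse control.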

[8] = test system: redroot pigweed (Amaranthus retroflexus); assay: Test G Post-Emergence Protocol; settings: Amaranthus retroflexus, post-emergence, 312 h, read-out: Pigweed, Redroot damage rating
Summary of the method: as §2

[9] = test system: barnyardgrass (Echinochloa crus-galli); assay: Test G Post-Emergence Protocol; settings: Echinochloa crus-galli, post-emergence, 312 h, read-out: Barnyardgrass damage rating
Summary of the method: as §2

[10] = test system: velvetleaf (Abutilon theophrasti); assay: Test G Post-Emergence Protocol; settings: Abutilon theophrasti, post-emergence, 312 h, read-out: Velvetleaf damage rating
Summary of the method: as §2

[11] = test system: giant foxtail (Setaria faberi); assay: Test G Post-Emergence Protocol; settings: Setaria faberi, post-emergence, 312 h, read-out: Foxtail, Giant damage rating
Summary of the method: as §2

corn (Zea mays) [12] = assay: Test G Post-Emergence Protocol; settings: Zea mays, post-emergence, 312 h, read-out: Corn damage rating
Summary of the method: as §2

[13] = 15.625 g ai/ha, evaluated after 13 days (100=total damage to plant; 0=no damage to plant)
[14] = 62.5 g ai/ha, evaluated after 13 days, 100=total damage to plant, 0=no damage to plant
[15] = 250 g ai/ha, evaluated after 13 days, 100=total damage to plant, 0=no damage to plant

SMILES: CN1C[C@@H](c2ccc(C(F)(F)F)cc2)[C@H](C(=O)Nc2cnc(Cl)cn2)C1=O (racemic) [Compound 1649]
- pest or weed control at 15.625 g/ha ([1]; 15.625 g ai/ha, read-out: Morningglory, Ivy-leaved damage rating (100=total damage to plant; 0=no damage to plant)): 0%
- pest or weed control at 62.5 g/ha ([1]; 62.5 g ai/ha, 100=total damage to plant, 0=no damage to plant, read-out: Morningglory, Ivy-leaved damage rating): 0%
- pest or weed control at 250 g/ha ([1]; 250 g ai/ha, read-out: Morningglory, Ivy-leaved damage rating (100=total damage to plant; 0=no damage to plant)): 0%
- pest or weed control at 15.625 g/ha ([2]; 15.625 g ai/ha, read-out: Pigweed, Redroot damage rating (100=total damage to plant; 0=no damage to plant)): 0%
- pest or weed control at 62.5 g/ha ([2]; 62.5 g ai/ha, 100=total damage to plant, 0=no damage to plant, read-out: Pigweed, Redroot damage rating): 20%
- pest or weed control at 250 g/ha ([2]; 250 g ai/ha, read-out: Pigweed, Redroot damage rating (100=total damage to plant; 0=no damage to plant)): 20%
- pest or weed control at 15.625 g/ha ([3]; 15.625 g ai/ha, read-out: Barnyardgrass damage rating (100=total damage to plant; 0=no damage to plant)): 0%
- pest or weed control at 62.5 g/ha ([3]; 62.5 g ai/ha, 100=total damage to plant, 0=no damage to plant, read-out: Barnyardgrass damage rating): 0%
- pest or weed control at 250 g/ha ([3]; 250 g ai/ha, read-out: Barnyardgrass damage rating (100=total damage to plant; 0=no damage to plant)): 0%
- pest or weed control at 15.625 g/ha ([4]; 15.625 g ai/ha, read-out: Velvetleaf damage rating (100=total damage to plant; 0=no damage to plant)): 0%
- pest or weed control at 62.5 g/ha ([4]; 62.5 g ai/ha, 100=total damage to plant, 0=no damage to plant, read-out: Velvetleaf damage rating): 0%
- pest or weed control at 250 g/ha ([4]; 250 g ai/ha, read-out: Velvetleaf damage rating (100=total damage to plant; 0=no damage to plant)): 0%
- pest or weed control at 15.625 g/ha ([5]; 15.625 g ai/ha, read-out: Foxtail, Giant damage rating (100=total damage to plant; 0=no damage to plant)): 0%
- pest or weed control at 62.5 g/ha ([5]; 62.5 g ai/ha, 100=total damage to plant, 0=no damage to plant, read-out: Foxtail, Giant damage rating): 10%
- pest or weed control at 250 g/ha ([5]; 250 g ai/ha, read-out: Foxtail, Giant damage rating (100=total damage to plant; 0=no damage to plant)): 20%
- plant injury at 15.625 g/ha (corn (Zea mays) [6]; 15.625 g ai/ha, read-out: Corn damage rating (100=total damage to plant; 0=no damage to plant)): 0%
- plant injury at 62.5 g/ha (corn (Zea mays) [6]; 62.5 g ai/ha, 100=total damage to plant, 0=no damage to plant, read-out: Corn damage rating): 0%
- plant injury at 250 g/ha (corn (Zea mays) [6]; 250 g ai/ha, read-out: Corn damage rating (100=total damage to plant; 0=no damage to plant)): 0%
- pest or weed control at 15.625 g/ha [7, 13]: 0%
- pest or weed control at 62.5 g/ha [7, 14]: 0%
- pest or weed control at 250 g/ha [7, 15]: 0%
- pest or weed control at 15.625 g/ha [8, 13]: 0%
- pest or weed control at 62.5 g/ha [8, 14]: 0%
- pest or weed control at 250 g/ha [8, 15]: 40%
- pest or weed control at 15.625 g/ha [9, 13]: 0%
- pest or weed control at 62.5 g/ha [9, 14]: 0%
- pest or weed control at 250 g/ha [9, 15]: 20%
- pest or weed control at 15.625 g/ha [10, 13]: 0%
- pest or weed control at 62.5 g/ha [10, 14]: 0%
- pest or weed control at 250 g/ha [10, 15]: 0%
- pest or weed control at 15.625 g/ha [11, 13]: 0%
- pest or weed control at 62.5 g/ha [11, 14]: 0%
- pest or weed control at 250 g/ha [11, 15]: 60%
- plant injury at 15.625 g/ha (corn (Zea mays) [12]; [13]): 0%
- plant injury at 62.5 g/ha (corn (Zea mays) [12]; [14]): 0%
- plant injury at 250 g/ha (corn (Zea mays) [12]; [15]): 0%
